Measured values taken from US20140323501A1, “AMINO-PROPYLENE-GLYCOL DERIVATIVES, PREPARATION METHOD AND PHARMACEUTICAL COMPOSITION AND USE THEREOF” (INSTITUTE OF MATERIA MEDICA, CHINESE ACADEMY OF MEDICAL …, priority 2011, published 2014).

What was measured:
SD rat heart rate = test: Effect of S1P1 receptor agonists on rat heart rate; assay type: in vivo; conditions: for HR delta %: (lowest heart rate postdose − pre-administration)/pre-administration; for heart rate pre-administration: before administration
Procedure: 2.1 Experimental animals: SD rats, purchased from Weitonglihua. Weight: 200-240 g, male. Every test group was assigned three rats. The normal rats were set as control group and determined as the medicated group parallelly for three times. The positive drug FTY720 was repeated three times.
2.2 Apparatus: Intelligent non-invasive blood pressure measurement meter (Softron, Japan).
(1) Preparation: The drug was dissolved to reach a concentration of 2.5 mg/mL.
(1) Determination of rat heart rate before administration. Repeat for three times.
(2) Administration: intragastric administration after SD rats weighed.
(3) Determination of rat heart rate at the time 0.5 h, 1 h, 3 h, 6 h, 8 h and 24 h after administration. Repeat for three times
Every drug was tested with three SD rats parallelly. […] Delta % of heart rate=(the lowest heart rate postdose−the heart rate pre-administration)/the heart rate pre-administration, reflects the influence of drugs on rat heart rate.

[1] = tested on: SD rat peripheral blood lymphocyte counts; test: Effect of S1P1 receptor agonists on rat vein (peripheral) blood lymphocyte counts; assay type: in vivo; conditions: for LYM 0 h: before administration; for Δ %: largest decrease of lymphocyte count vs 0 h
Procedure: 10 mg of drugs were measured and placed in a mortar. After 4 mL of 5‰ CMC-Na were added, homogenous suspension was prepared in the mortar (one drop of twain-80 was added to help dissolving). Dosage: 10 mg/Kg, dose volume: 0.4 mL/100 g, intragastric administration.
Every medicated group was assigned three rats.
After the experimental animals stable in the clean environment for 24 h, 10 μL of blood was withdrawn via tail vein and diluted into 2 mL of diluents quickly. […] Then the prepared drugs were administered intragastrically to the animals. […] The animals were killed after 24 h.

[2] = Table 6, intragastric, listed as FTY720-1
[3] = Table 6, intragastric, listed as FTY720-2

Compound: CCCCCCCCc1ccc(CCC(N)(CO)CO)cc1 [FTY720, reference compound]
- HR delta % (SD rat heart rate; Table 2, listed as FTY720-1): 19.60%
- HR delta % (SD rat heart rate; Table 2, listed as FTY720-2): 17.80%
- HR delta % (SD rat heart rate; Table 2, listed as FTY720-3): 14.00%
- HR delta % (SD rat heart rate; Table 2, listed as average of FTY720): 16.6%
- heart rate 0.5 h (SD rat heart rate; Table 2, intragastric, 0.5 h after administration, listed as FTY720-1): 392.33
- heart rate 0.5 h (SD rat heart rate; Table 2, intragastric, 0.5 h after administration, listed as FTY720-2): 361.28
- heart rate 0.5 h (SD rat heart rate; Table 2, intragastric, 0.5 h after administration, listed as FTY720-3): 379.67
- heart rate 0.5 h (SD rat heart rate; Table 2, intragastric, 0.5 h after administration, listed as average of FTY720): 377.76
- heart rate 1 h (SD rat heart rate; Table 2, intragastric, 1 h after administration, listed as FTY720-1): 361.00
- heart rate 1 h (SD rat heart rate; Table 2, intragastric, 1 h after administration, listed as FTY720-2): 331.71
- heart rate 1 h (SD rat heart rate; Table 2, intragastric, 1 h after administration, listed as FTY720-3): 370.62
- heart rate 1 h (SD rat heart rate; Table 2, intragastric, 1 h after administration, listed as average of FTY720): 354.44
- heart rate 3 h (SD rat heart rate; Table 2, intragastric, 3 h after administration, listed as FTY720-1): 318.50
- heart rate 3 h (SD rat heart rate; Table 2, intragastric, 3 h after administration, listed as FTY720-2): 329.33
- heart rate 3 h (SD rat heart rate; Table 2, intragastric, 3 h after administration, listed as FTY720-3): 355.83
- heart rate 3 h (SD rat heart rate; Table 2, intragastric, 3 h after administration, listed as average of FTY720): 334.55
- heart rate 6 h (SD rat heart rate; Table 2, intragastric, 6 h after administration, listed as FTY720-1): 325.78
- heart rate 6 h (SD rat heart rate; Table 2, intragastric, 6 h after administration, listed as FTY720-2): 327.82
- heart rate 6 h (SD rat heart rate; Table 2, intragastric, 6 h after administration, listed as FTY720-3): 342.00
- heart rate 6 h (SD rat heart rate; Table 2, intragastric, 6 h after administration, listed as average of FTY720): 331.86
- heart rate 8 h (SD rat heart rate; Table 2, intragastric, 8 h after administration, listed as FTY720-1): 341.00
- heart rate 8 h (SD rat heart rate; Table 2, intragastric, 8 h after administration, listed as FTY720-2): 338.78
- heart rate 8 h (SD rat heart rate; Table 2, intragastric, 8 h after administration, listed as FTY720-3): 342.50
- heart rate 8 h (SD rat heart rate; Table 2, intragastric, 8 h after administration, listed as average of FTY720): 340.76
- heart rate 24 h (SD rat heart rate; Table 2, intragastric, 24 h after administration, listed as FTY720-1): 329.67
- heart rate 24 h (SD rat heart rate; Table 2, intragastric, 24 h after administration, listed as FTY720-2): 365.07
- heart rate 24 h (SD rat heart rate; Table 2, intragastric, 24 h after administration, listed as FTY720-3): 363.44
- heart rate 24 h (SD rat heart rate; Table 2, intragastric, 24 h after administration, listed as average of FTY720): 352.72
- heart rate pre-administration (SD rat heart rate; Table 2, intragastric, listed as FTY720-1): 396.28
- heart rate pre-administration (SD rat heart rate; Table 2, intragastric, listed as FTY720-2): 398.60
- heart rate pre-administration (SD rat heart rate; Table 2, intragastric, listed as FTY720-3): 398.22
- heart rate pre-administration (SD rat heart rate; Table 2, intragastric, listed as average of FTY720): 397.70
- Δ % = the percentage of change of rat heart rate before and after administration (SD rat heart rate; Table 4): 26.16%
- heart rate 0.5 h (SD rat heart rate; Table 4, intragastric, 0.5 h): 356.33
- heart rate 1 h (SD rat heart rate; Table 4, intragastric, 1 h): 319.22
- heart rate 3 h (SD rat heart rate; Table 4, intragastric, 3 h): 288.58
- heart rate 6 h (SD rat heart rate; Table 4, intragastric, 6 h): 280.13
- heart rate 8 h (SD rat heart rate; Table 4, intragastric, 8 h): 308.08
- heart rate 24 h (SD rat heart rate; Table 4, intragastric, 24 h): 323.25
- heart rate 0 (SD rat heart rate; Table 4, intragastric, time 0, before administration): 379.42
- HR delta % (SD rat heart rate; Table 6, listed as FTY720-1): 21.86%
- HR delta % (SD rat heart rate; Table 6, listed as FTY720-2): 22.61%
- heart rate 1 h (SD rat heart rate; Table 6, intragastric, 1 h, listed as FTY720-1): 389.62 ± 30.01
- heart rate 1 h (SD rat heart rate; Table 6, intragastric, 1 h, listed as FTY720-2): 389.62 ± 23.39
- heart rate 4 h (SD rat heart rate; [2]): 340.17 ± 32.04
- heart rate 4 h (SD rat heart rate; [3]): 354.27 ± 15.79
- heart rate 8 h (SD rat heart rate; Table 6, intragastric, 8 h, listed as FTY720-1): 361.69 ± 27.99
- heart rate 8 h (SD rat heart rate; Table 6, intragastric, 8 h, listed as FTY720-2): 346.91 ± 26.41
- heart rate 12 h (SD rat heart rate; [2]): 360.62 ± 18.19
- heart rate 12 h (SD rat heart rate; [3]): 335.67 ± 16.30
- heart rate 24 h (SD rat heart rate; Table 6, intragastric, 24 h, listed as FTY720-1): 410.31 ± 32.13
- heart rate 24 h (SD rat heart rate; Table 6, intragastric, 24 h, listed as FTY720-2): 370.18 ± 26.82
- heart rate pre-administration (SD rat heart rate; [2]): 435.36 ± 47.99
- heart rate pre-administration (SD rat heart rate; [3]): 433.75 ± 30.84
- HR delta % (SD rat heart rate; Table 9): 17.80%
- heart rate 0.5 h (SD rat heart rate; Table 9, intragastric, 0.5 h): 361.28 ± 22.91
- heart rate 1 h (SD rat heart rate; Table 9, intragastric, 1 h): 331.71 ± 12.26
- heart rate 3 h (SD rat heart rate; Table 9, intragastric, 3 h): 329.33 ± 11.32
- heart rate 6 h (SD rat heart rate; Table 9, intragastric, 6 h): 327.82 ± 15.60
- heart rate 8 h (SD rat heart rate; Table 9, intragastric, 8 h): 338.78 ± 12.07
- heart rate 24 h (SD rat heart rate; Table 9, intragastric, 24 h): 365.07 ± 19.47
- heart rate pre-administration (SD rat heart rate; Table 9, intragastric): 398.60 ± 33.20
- LYM 0 h ([1]; Table 1, 10 mg/Kg intragastric): 4.20 ± 0.57 × 10^9/L
- LYM 1 h ([1]; Table 1, 10 mg/Kg intragastric, 1 h after administration): 4.75 ± 2.76 × 10^9/L
- LYM 2 h ([1]; Table 1, 10 mg/Kg intragastric, 2 h after administration): 2.45 ± 0.07 × 10^9/L
- LYM 4 h ([1]; Table 1, 10 mg/Kg intragastric, 4 h after administration): 2.75 ± 0.78 × 10^9/L
- LYM 8 h ([1]; Table 1, 10 mg/Kg intragastric, 8 h after administration): 1.80 ± 0.14 × 10^9/L
- LYM 12 h ([1]; Table 1, 10 mg/Kg intragastric, 12 h after administration): 1.00 ± 0.00 × 10^9/L
- LYM 24 h ([1]; Table 1, 10 mg/Kg intragastric, 24 h after administration): 2.60 ± 0.42 × 10^9/L
- compared with 0 h (%) 1 h ([1]; Table 1, lymphocyte count change vs 0 h, 10 mg/Kg intragastric, 1 h): −13.10%
- compared with 0 h (%) 2 h ([1]; Table 1, lymphocyte count change vs 0 h, 10 mg/Kg intragastric, 2 h): 41.67%
- compared with 0 h (%) 4 h ([1]; Table 1, lymphocyte count change vs 0 h, 10 mg/Kg intragastric, 4 h): 34.52%
- compared with 0 h (%) 8 h ([1]; Table 1, lymphocyte count change vs 0 h, 10 mg/Kg intragastric, 8 h): 57.14%
- compared with 0 h (%) 12 h ([1]; Table 1, lymphocyte count change vs 0 h, 10 mg/Kg intragastric, 12 h): 76.19%
- compared with 0 h (%) 24 h ([1]; Table 1, lymphocyte count change vs 0 h, 10 mg/Kg intragastric, 24 h): 38.10%
- LYM 0 h ([1]; Table 3, 10 mg/Kg intragastric): 4.97 ± 1.06 ×10^9/L
- LYM 1 h ([1]; Table 3, 10 mg/Kg intragastric, 1 h): 3.18 ± 0.52 ×10^9/L
- LYM 2 h ([1]; Table 3, 10 mg/Kg intragastric, 2 h): 3.15 ± 0.71 ×10^9/L
- LYM 4 h ([1]; Table 3, 10 mg/Kg intragastric, 4 h): 3.44 ± 1.30 ×10^9/L
- LYM 6 h ([1]; Table 3, 10 mg/Kg intragastric, 6 h): 2.78 ± 0.84 ×10^9/L
- LYM 8 h ([1]; Table 3, 10 mg/Kg intragastric, 8 h): 2.32 ± 0.90 ×10^9/L
- LYM 12 h ([1]; Table 3, 10 mg/Kg intragastric, 12 h): 2.33 ± 0.75 ×10^9/L
- LYM 23 h ([1]; Table 3, 10 mg/Kg intragastric, 23 h): 1.78 ± 0.29 ×10^9/L
- Δ % ([1]; Table 3, 10 mg/Kg intragastric): 64.09%
- LYM 0 h ([1]; Table 5, 10 mg/Kg intragastric): 3.80 ± 0.14 × 10^9/L
- LYM 1 h ([1]; Table 5, 10 mg/Kg intragastric, 1 h): 2.30 ± 0.85 × 10^9/L
- LYM 4 h ([1]; Table 5, 10 mg/Kg intragastric, 4 h): 1.20 ± 0.36 × 10^9/L
- LYM 8 h ([1]; Table 5, 10 mg/Kg intragastric, 8 h): 1.07 ± 0.50 × 10^9/L
- LYM 12 h ([1]; Table 5, 10 mg/Kg intragastric, 12 h): 1.27 ± 0.23 × 10^9/L
- LYM 24 h ([1]; Table 5, 10 mg/Kg intragastric, 24 h): 1.60 ± 0.57 × 10^9/L
- Δ % ([1]; Table 5): 71.93%
- LYM 0 h ([1]; Table 7, 10 mg/Kg intragastric): 3.80 ± 0.14 × 10^9/L
- LYM 1 h ([1]; Table 7, 10 mg/Kg intragastric, 1 h): 2.30 ± 0.85 × 10^9/L
- LYM 4 h ([1]; Table 7, 10 mg/Kg intragastric, 4 h): 1.20 ± 0.36 × 10^9/L
- LYM 8 h ([1]; Table 7, 10 mg/Kg intragastric, 8 h): 1.07 ± 0.50 × 10^9/L
- LYM 12 h ([1]; Table 7, 10 mg/Kg intragastric, 12 h): 1.27 ± 0.23 × 10^9/L
- LYM 24 h ([1]; Table 7, 10 mg/Kg intragastric, 24 h): 1.60 ± 0.57 × 10^9/L
- Δ % ([1]; Table 7): 71.93%
- LYM 0 h ([1]; Table 8, 10 mg/Kg intragastric): 4.20 ± 0.57 × 10^9/L
- LYM 1 h ([1]; Table 8, 10 mg/Kg intragastric, 1 h): 4.75 ± 2.76 × 10^9/L
- LYM 4 h ([1]; Table 8, 10 mg/Kg intragastric, 4 h): 2.75 ± 0.78 × 10^9/L
- LYM 8 h ([1]; Table 8, 10 mg/Kg intragastric, 8 h): 1.80 ± 0.14 × 10^9/L
- LYM 12 h ([1]; Table 8, 10 mg/Kg intragastric, 12 h): 1.00 ± 0.00 × 10^9/L
- LYM 24 h ([1]; Table 8, 10 mg/Kg intragastric, 24 h): 2.60 ± 0.42 × 10^9/L
- Δ % ([1]; Table 8): 76.19%
